This is an account of results in US8119614B2, “Substitution derivatives of N6-benzyladenosine, methods of their preparation, their use for preparation of drugs, cosmetic preparations and growth regulators, pharmaceutical preparations, cosmetic preparations and growth regulators containing these compounds” (Ustav Experimentalni Botaniky Akademie Ved Ceske Republiky, priority 2002, dated 2012).

In experiment [1] the test system is HL-60 cells. Put plainly: HL-60 cell proliferation and viability (FDA/PI staining). The format is cell-based, human. Conditions: 50 μM Z-VAD-FMK with 20 μM 2OH3MeOBAPR, 72 h (FIG. 10). As to the method: Cell culture. A suspension of human promyelocytic HL-60 cells was cultured in RPMI-1640 medium supplemented with a 10% calf foetal serum and antibiotics in 5% CO2 atmosphere at 37° C. Cells were maintained at density from 1×10^5 to 6×10^5 cells per ml. HL-60 cells were obtained from ECACC.
Cell viability assay. Double staining with fluorescein diacetate (FDA) and propidium iodide (PI) for discrimination of dead and living cells was used. Cells were stained in growing medium with PI at a concentration 10 μg/ml 5 min later FDA was added at a concentration 1 μg/ml. The percentage of dead cells (i.e., red stained cells) was evaluated using fluorescence microscopy (Mlejnek and Kolman 1999).

The subject of experiment [2] is Rosa multiflora. Put plainly: In vitro and post vitro multiplication and rooting of rose. It counts as in vivo.
Experiment [3] has as its system Rosa hybrida ‘Pailin’. Put plainly: Early shoot senescence inhibition of tissue cultured roses. The format is in vivo. Conditions: 10 μM in medium. How it is done:
Rosa hybrida ‘Pailin’ (a cut rose) was cultured in 350 ml vessels with a screw on polycarbonate lid. Each culture vessel contained 100 ml autoclaved medium (120° C., 20 min). The cultures were maintained at 23±2° C. under a 16 h photoperiod at […] m^−2 s^−1 PAR. The basal medium (MBR) contained Murashige and Skoog (1962) macroelements, microelements and vitamins, 36.7 mg/l NaFeEDTA, 50 mg/l NaFeEDDHA, […], 30 g/l sucrose, 100 mg/l glycine, 50 mg/l calcium pantothenate, 100 mg/l L-glutamine and 7 g/l agar-agar. This medium was supplemented with 10 μM of the tested cytokinin. New cytokinins were filter sterilised and added after autoclaving the medium in the vessels. 6-Benzylaminopurine (BAP) was used as a standard compound; the control medium didn't contain any cytokinin. After a culture period of 6 weeks, scoring senescence symptoms was started.

For experiment [4], the system named is spring wheat (variety Sandra). Put plainly: Field studies: yield analysis of spring wheat crop. Particulars: spray of 10^−6 molar solution, Control = 100.0. It counts as in vivo. How it is done:
Crops (over the 4-year period) of spring wheat were sown in the experimental fields of Czech Agriculture University (CZU) (region of sugar beet production type) at a seeding rate of 400 germinative grains·m^−2 into ploughed and shoddy soil containing 116.1 mg/kg P, 228.3 mg/kg K, and 211.8 mg/kg Mg (agrochemical analyses were done at Department of Pedology CZU) (interval between ploughing and sowing is usually 3-4 days, longer only in case of adverse weather conditions). Preceding crop was rape. Soil preparation was done by the classical way using skid and harrow and after seeding is rolled.
(§1) Height of plants, leaf area, dry matter, development of vegetation opex—bases of future spike, and number of spikelets were monitored after germination in 14 day intervals, […]. From these primary data, values used in production physiology are derived, as leaf area index LAI, photosynthetic capacity LAD, tillering potential. Experiments with treatment of spring wheat crop (variety Sandra) are carried out on the field (area 10 m^2, four replicates) by spraying 1 litr of 10^−6 molar solution of tested compound (cytokinin) at the transition period from jointing stage to athesis stage (49 DC).
Yield analysis, evaluating spike lenght and seed number per spikelet (Σ Z/K) were carried out for 30 plant per each variant, yield from 1 m^2 and 1000 grain weight (HTS) was determined from 8 replicates, yield per ha was subsequently calculated.

The test system of experiment [5] is glutamate kinase. Put plainly: Field studies: glutamate kinase activity in spring wheat. Conditions: 6 days after the application, Control = 100.0. The format is in vivo. Further details: tested at 1 µM (10^-6 M spray solution). How it is done:
as §1
Glutamate kinase activity was determined 6 days after the application. This enzyme was selected because of good corelation of its activity changes and state of transport of endogenous substances (nutrients from roots, assimilates to cariopsis), respiration, energy (adenosintriphosphate) transfer, storage of nutrients, growth and developmental proceses, and also metabolism of proline, which is known from literature to play an important role in adaptation against stress (unsuitable stand, drought, hypersalinity, coldness) and also in regulation of both theoretical and real production (restriction of seed number reduction per spikelet). Enzyme glutamate kinase catalyses to glutamate conversion into γ glutamylphosphate, which is first step of proline biosynthesis from glutamate. Therefore, this enzyme is, as essential precursor of other plant metabolic pathways, marker of stress inhibition. It can be determined spectrofotometrically (Vasáková, 1980). For analysis, acetone powder is prepared from a sample by standard method, subsequently extracted by 0.05M potassium-phosphate buffer pH=7.2 and centrifugated. Glutamate kinase fraction is precipitated using crystalline ammonium sulfate and after dialysis, glutamate kinase activity is determined spectrophotometrically. Proline accumulation increased by stress corresponds as a “feedback” to glutamate kinase inhibition.

The mark [6] stands for this setting: Ex vitro, after four weeks of acclimatising.

Entries after “also recorded” stand apart in the source; their conditions may differ. Peptide text beside a SMILES is read from it. * marks the point of attachment. Cbz = O=C(OCc1ccccc1)*; CH2F = FC*

Consider `COC(=O)C[C@H](NC(=O)[C@H](C)NC(=O)[C@@H](NC(=O)OCc1ccccc1)C(C)C)C(=O)CF` [Z-VAD-FMK, reference compound] (Cbz-Val-Ala-Asp(OMe)-CH2F), for which the “effect of caspase inhibitor on 2OH3MeOBAPR induced apoptosis and cell death” value in experiment [1] was “suppress morphological and biochemical characteristics of apoptosis, however it does not inhibit cell death itself”.

For the compound `c1ccc(CNc2ncnc3nc[nH]c23)cc1` [BAP, 6-benzylaminopurine, reference compound], the “shoot multiplication and rooting (in words)” value in experiment [2] (10 μM in medium) is recorded as “high shoot multiplication rate, but the shoots rooted badly”. For the same compound, in experiment [2] (setting [6]), the “Root number per plant” value is recorded as 0.6 and the “Total root length per plant (cm)” value came out at 1.1 cm. Moreover, in experiment [2] (In vitro, 10 μM, 8 weeks), the “Flower number per explant” value is 0.00, the “Number of new shoots per explant” value was 3.8, the “Root number per explant” value is reported as 0.0 and the “Total root length per explant (cm)” value worked out at 0.0 cm. Further, the “senescence / dying of rose explants (in words)” value in experiment [3] is listed as “the relative number of dead plants looks like a sigmoid curve; also recorded: dead Rosa explant”. In addition, in experiment [4], the “HTS (%) (1000 grain weight)” value was 102.0%, the “Yield(%)” value was determined as 115.4%, the “Σ Z/K (%) (seed number per spikelet)” value is given as 111.9% and the “Σ spike/m^2 (%)” value is 101.1%. Also, the “GK % (glutamate kinase activity)” value in experiment [5] came to 108.2%.
